Experimental data as given in patent US20050031537A1, “Multifunctional COX-2 inhibitors” (priority 2002, published 2005).

Columns and labels:
[1] = test system: HER-2/neu; experiment: Western blotting for expression of HER-2/neu (test (b)); assay type: cell-based, human; details: positive in 184B5/HER, BT474 and SKBR3 cells; 24 h; Western blot
Source text: (§1) We turn now to the criterion (b), that is at least 50% decrease in level of or 50% downregulation of expression of Class I family of receptors tyrosine kinase. The Class I family of receptors tyrosine kinase is described in Reese, M. D., et al Stem Cells 15, pages 1-8 (1997), the whole of which in incorporated herein by reference. Members of the family include HER-2/neu, HER-3, HER-4 and epidermal growth factor receptor (EGFR) and are single-chain membrane spanning proteins which have significant homology to one another including about 80% amino acid identity in the tyrosine kinase domain.
HER-2/neu (erbB-2) gene product is a 185-kDA transmembrane receptor tyrosine kinase that is described in some detail in said Reese et al publication and overexpression thereof has been associated with tumor growth in several kinds of cancer.
(§2) To evaluate the expression of Class I family of receptors tyrosine kinase (EGFR, HER-2/neu), Western blotting can be performed. Antibodies for EGFR and HER-2/neu can be obtained from Santa Cruz Biotechnology, Inc.
(§3) Expression of EGFR (performed in 184B5, 184B5/HER, 1483, LNCaP, HeLa and CaSki cells)and HER-2/neu (performed in 184B5/HER, SKBR3 and BT474 cells) was assessed in cells after treatment with test compound for 24 hours. 5×10^6 cells were used for the treatment. Western blotting technique was used to assess the expression levels in cells treated with the test compound compared to vehicle alone. Western blotting was carried out as follows:
(§4) Cell lysates were prepared by treating cells with lysis buffer (150 mM NaCl, 100 mM Tris (pH 8.0), 1% Tween 20, 50 mM diethyldithiocarbamate, 1 mM EDTA, 1 mM phenylmethylsulfonyl fluoride, 10 μg/ml aprotinin, 10 μg/ml trypsin inhibitor and 10 μg/ml leupeptin). Lysates were sonicated for 20 s on ice and centrifuged at 10,000×g for 10 min to sediment the particulate material. The protein concentration of the supernatant was measured by the method of Lowry, O. H., et al., J. Biol. Chem. 193, 265-275 (195 1). SDS/PAGE was performed under reducing conditions on 10% polyacrylamide gels as described by Laemmli, U.K., Nature (Lond.) 227, 680-685 (1970). The resolved proteins were transferred onto nitrocellulose sheets as detailed by Towbin, H. et al., Proc. Natl. Acad. Sci. USA 76, 4350-4354 (1979). The nitrocellulose membrane was then incubated with anti-EGFR antiserum or anti-HER-2/neu antiserum. Secondary antibody to IgG conjugated to horseradish peroxidase was used. The various antisera were purchased from Santa Cruz Biotechnology, Inc., CA. The blots were probed with the Renaissance Western blot detection system according to the manufacturer's instructions (PerkinElmer Life Sciences, Boston, Mass.).

[2] = test system: HPV16 oncoproteins E6 and E7; experiment: Western and Northern blotting for HPV16 oncoproteins E6 and E7 (test (d)); assay type: cell-based, human papillomavirus; details: positive in CaSki and SiHa cells
Procedure: We turn now to the criterion (d), that is at least 50% downregulation of expression of HPV16 oncoproteins E6 and E7.
Protein E6 and E7 which are expressed by HPV16 are believed to play a major role in carcinogenesis.
Western blotting and Northern blotting techniques were used to evaluate the expression of HPV E6 and E7 proteins. The cell lines used for the study were CaSKi and SiHa. The cells were treated with the test compound and cell lysate was obtained as described above and subjected to Western blotting analysis. The Western blotting analysis was performed as described above except anti-HPV 16 E7 antibody was used to probe the blot. The antibody was obtained from Santa Cruz Biotechnology, Inc. CA. For Northern blotting, total cellular RNA was isolated from cell monolayers using an RNA isolation kit from QIAGEN Inc. after treatment with the test compound. 10 μg of total cellular RNA per lane were electrophoresed in a formaldehyde-containing 1.2% agarose gel and transferred to nylon-supported membranes. After baking, membranes were prehybridized overnight in a solution containing 50% formamide, 5×sodium chloride-sodium phosphate-EDTA buffer (SSPE), 5×Denhardt's solution, 0.1% SDS and 100 μg/ml single-stranded salmon sperm DNA and then hybridized for 12 h at 42° C. with radiolabeled cDNA probes for human HPV16 E6 or E7 cDNAs and 18S rRNA. E6 and E7 (as described in Woodworth, C. D., Cancer Res. 16, 4397-4402 (2000)) and 18S rRNA probes were labeled with [^32P]-CTP by random priming. After hybridization, membranes were washed twice for 20 min at room temperature in 2×SSPE-0.1% SDS, twice for 20 min in the same solution at 55° C., and twice for 20 min in 0.1×SSPE-0.1% SDS at 55° C. Washed membranes were then subjected to autoradiography.

[3] = Patient with atherosclerosis (Example VI); assay type: in vivo, human; details: person one, 200 mg bid
Source text: patient one presents with symptoms of chest discomfort on exertion and is diagnosed with atherosclerosis. […] The progression of the atherosclerosis stops.

[4] = Patient with cervical intraepithelial neoplasia, HPV 16 detected (Example VIII); assay type: in vivo, human; details: person, 0.5% in a cream on sponge/cervical cap, six months
Source text: A person presents to their gynecologist for evaluation. […] On biopsy, the patient is found to have cervical intraepithelial neoplasia. HPV 16 is detected. […] The SC-236 is discontinued with no recurrence of cervical intraepithelial neoplasia.

[5] = test system: PPRE luciferase; experiment: PPRE luciferase activation, transient transfection reporter assay (test (a)); assay type: cell-based, human; details: positive in 184B5, 184B5/HER, HCA7, HCT116, SKBR3 and BT474 cells; 24 h treatment
Source text: We turn now to criterion (a), that is activation of PPRE luciferase by at least 100%. PPRE-luciferase refers to a DNA construct containing the peroxisome proliferator activated receptor (PPAR) binding element joined to luciferase. Cells are transfected with PPRE-luciferase DNA. Ligands of PPAR induce luciferase activity. The ability of a test compound to stimulate PPRE-luciferase signifies that the test compound activates PPAR-mediated gene transcription. PPRE means peroxisome proliferator response element and the method by which PPRE-luciferase is constructed is described in Schoonjans, K., et al, J. Biol. Chem. 270, No. 33, 19269-19276 (Aug. 18, 1995). Use of PPRE-luciferase in a transient transfection to measure increase in promoter activity is disclosed in Subbaramaiah, K. et al, J. Biol. Chem. 270, No. 15, 12440-12448 (Apr. 13, […]).
For each well, 1.8 μg of PPRE3-tk-luciferase construct plasmid DNA (described in Forman, B. M., et al, Cell 83, 803 (1995)) plus 0.2 μg of pSV-β-galactosidase were introduced into cells using 8 μg of LipofectAMINE as per the manufacturer's instructions (Invitrogen, CA). After 7 h of incubation, the medium was replaced with basal medium. After transfection, cells were treated with test compound for 24 h. Reporter activities which include luciferase and β-galactosidase were measured in cellular extract 24 h later. Six wells were used for each of the conditions. Luciferase activity represents data that have been normalized with β-galactosidase.
The luciferase assay was performed as per the BD Pharmingen assay reagents. The Enhanced Luciferase Assay Kit provides a firefly luciferase substrate formulation (Substrates A and B) and cell lysis buffer intended for use in measuring luciferase expressed by transfected cells. Media from cell culture plates was removed and rinsed twice with phosphate buffered saline. Enough 1X cell lysis buffer was added to cover cells and incubated at room temperature for 15-20 min. Cells were dislodged by scraping and transferred to microcentrifuge tubes. […] 20-100 μl cell extract was placed into an assay cuvette. One automatic injector type luminometer is used for assay. Manually 100 μl of Substrate A was added to the assay cuvette and automatically 100 μl of Substrate B was injected. Measurements were performed using a luminometer, for a measurement time of 10 seconds.
The β-galactosidase assay was performed as follows:
50 μl of cell lysate from above was incubated with 50 μl of o-nitrophenyl-β-D-galactoside (ONPG; 4 mg/mL) in Z buffer, (Na2HPO4.7H2O (0.06M), NaH2PO4.H2O (0.04M), 1M KCl (0.01M), 1M MgSO4 (0.001M), β-mercaptoethanol (BME) (0.05M) pH 7.0). The reaction was stopped after sufficient yellow color has developed. The yellow color developed is measured at A420 […].

[6] = test system: EGFR; experiment: Western blotting for expression of EGFR (test (b)); assay type: cell-based, human; details: positive in 184B5, 184B5/HER, 1483, LNCaP, HeLa and CaSki cells; 24 h; Western blot
Source text: as §1
Epidermal growth factor receptor (EGFR) is a 170 kDA glycoprotein. […] After ligand binding, EGFR undergoes dimerization which is essential for activation of its enzymatic kinase activity. EGFR is thus autophospliorylated and transphosphorylated on tyrosine residues, and the phosphorylated residues become the site of association of effector proteins. Overexpressed EGFR is intimately involved in modulating the epidermal growth factor growth signal and is considered as likely to confer a growth advantage. This conclusion is supported by the observation that tumor growth in nude mice is inhibited by treatment with anti-EGFR antibodies and tumorigenicity in nude mice is inhibited through blockage of the tyrosine kinase activity of the receptor.
as §2, §3, §4

[7] = test system: cyclin D1; experiment: Western blotting for expression of cyclin D1 (test (c)); assay type: cell-based, human; details: positive in 184B5, 184B5/HER cells; 24 h; Western blot
Procedure: Cyclin D1 is a protein that is important in regulating cell proliferation and is described in Ortega, S., et al, Biochimica et Biophysica Acta 1602, 73-87, (2002), the whole of which is incorporated by reference. […] Effects on expression of cyclin D1 was investigated in 184B5, 184B5/HER, HCA7, HCT116, SKBR3 and BT474 cells. The expression was assessed in cells after treatment with test compound or vehicle using 5×10^4 cells for 24 hours. Western blotting technique was used as follows to assess the expression levels of cyclin D1 in cells treated with the test compound and compared to levels in cells treated with vehicle alone. Cell lysates were prepared by treating cells with lysis buffer as described above. […] The resolved proteins were transferred onto nitrocellulose sheets. The nitrocellulose membrane was then incubated with anti-cyclin D1 antiserum. Secondary antibody to IgG conjugated to horseradish peroxidase was used. The various antisera were purchased from Santa Cruz Biotechnology, Inc., CA. The blots were probed with the Renaissance Western blot detection system according to the manufacturer's instructions (PerkinElmer Life Sciences, Boston, Mass.).

[8] = test system: Nrf-2; experiment: Western and Northern blotting for expression of Nrf-2 (test (g)); assay type: cell-based, human; details: positive in 184B5, 184B5/HER, HCA7, HCT116, SKBR3, BT474 and CaSki cells
Procedure: We turn now to criterion (g), i.e. at least 50% increase in expression of Nrf-2. […] 13, 2001).
Western blotting and Northern blotting techniques were used to evaluate the expression of Nrf-2. The expression of Nrf-2 was evaluated in HCA7, HCT116, SKBR3, CaSki, 184B5/HER, 184B5 and BT474 cells. 5×10^6cells were used to treat either vehicle alone or the test compound. The Western blotting analysis was performed as described above except anti-Nrf-2 antibody was used to probe the blot. The antibody was obtained from Santa Cruz Biotechnology, Inc. CA. Northern blotting for Nrf-2 was performed as described above and cDNA for Nrf-2 as described in Gong, P., et al., J.Biol Chem 20; 276:27018-27025 (2001) was used as a probe.

SMILES	Test (b) HER-2/neu: at least 50% decrease in level of or 50% downregulation of expression [1]	Test (d) at least 50% downregulation of expression of HPV16 oncoproteins E6 and E7 [2]	progression of the atherosclerosis [3]	repeat biopsy finding of cervical intraepithelial neoplasia [4]	Test (a) activation of PPRE luciferase by at least 100% [5]	Test (b) EGFR: at least 50% decrease in level of or 50% downregulation of expression [6]	Test (c) at least 50% downregulation of expression of cyclin D1 [7]	Test (g) at least 50% increase in expression of Nrf-2 [8]
COc1ccc(-n2nc(C(F)(F)F)cc2-c2ccc(Cl)cc2)cc1 [SC-560, 5-(4-chlorophenyl)-1-(4-methoxyphenyl)-3-(trifluoromethyl)-1H-pyrazole]	+ (A plus sign in the table indicates a positive result, that is meeting the test for each cell line as indicated above as providing a positive result)	+ (A plus sign in the table indicates a positive result, that is meeting the test for each cell line as indicated above as providing a positive result)	stops	no evidence of cervical intraepithehal neoplasia				
COc1ccc2c(c1)c(CC(=O)Nc1ccc(NC(C)=O)cc1)c(C)n2C(=O)c1ccc(Cl)cc1 [Indomethacin Analog 5]					+ (A plus sign in the table indicates a positive result, that is meeting the test for each cell line as indicated above as providing a positive result)	+ (A plus sign in the table indicates a positive result, that is meeting the test for each cell line as indicated above as providing a positive result)	+ (A plus sign in the table indicates a positive result, that is meeting the test for each cell line as indicated above as providing a positive result)	+ (A plus sign in the table indicates a positive result, that is meeting the test for each cell line as indicated above as providing a positive result)
